Test system: PILRA G78 expressing HEK293 cells
Test: mTOR dependence of anti-PILRA antibody-induced pSTAT3 Y705
Type: cell-based, human
Conditions: 2 hours pre-incubation; AZD8055 3.125-50 nM, Torin 1 31.25-500 nM; then 100 nM anti-PILRA mAb 30 mins
Protocol: To assess if pSTAT3 Y705 induction is mTOR dependent, cells were dosed with mTOR inhibitors Torin 1 (31.25-500 nM) or AZD8055 (3.125-50 nM) for 2 hours before spiking in 100 nM anti-PILRA mAb or isotype control for 30 mins.

SMILES: COc1ccc(-c2ccc3c(N4CCOC[C@@H]4C)nc(N4CCOC[C@@H]4C)nc3n2)cc1CO [AZD8055]
- blocking of anti-PILRA antibody-induced pSTAT3 Y705 by mTOR inhibitor: partially blocked

SMILES: CCC(=O)N1CCN(c2ccc(-n3c(=O)ccc4cnc5ccc(-c6cnc7ccccc7c6)cc5c43)cc2C(F)(F)F)CC1 [Torin 1]
- blocking of anti-PILRA antibody-induced pSTAT3 Y705 by mTOR inhibitor: partially blocked
